# Measurements taken from US12303517B1, “Oral testosterone therapy” (Lipocine, Inc., priority 2016, dated 2025).
# Experiments:
# [1] = Randomized double-blind placebo-controlled dose escalating clinical study of oral T13 in hypogonadal males (serum testosterone pharmacokinetics); type: in vivo, human; details: for T Cavg (±SD) / T Cmax (±SD) / % with Cavg/day > 300 ng/dL / % with Cmax/dose < 1,500 ng/dL: hypogonadal males; for % with Cavg/day > 300 ng/dL / % with Cmax/dose < 1,500 ng/dL: serum T
# Procedure: Dosage Form Example B of Composition 4 with dosing regimen (Regimen #. 1-9) of dosing category BID-equal dose with daily dose range 500-1250 mg of T13 in this invention were used for a clinic study of Testosterone Therapy for hypogonadal males.
# This Clinical Study is a Randomized Double-Blind, Placebo-Controlled Dose Escalating Study of the Safety, Efficacy, Tolerability, and Pharmacokinetics of Testosterone Therapy in Hypogonadal Males. This clinic study was a single and multiple, ascending-dose study that was designed to determine the optimal starting, titration (if appropriate), or single fixed dose for safety and efficacy targeted by US FDA. The study also verified the time for testosterone levels to reach steady state and identified a suitable single fixed dose dosing regimen that satisfies unmet need for safety and efficacy for oral TRT.
# This study was carried out with conditions of a single-center, randomized, double-blind, placebo-controlled, ascending multiple-dose, and serial-group in adult hypogonadal male subjects. The objectives of this study were: • a) To assess the safety, efficacy, and tolerability of escalating single and multiple oral doses of T13 dosage forms in hypogonadal males • b) To determine the pharmacokinetics (PK) of testosterone (T), DHT, TT, DHTT, and estradiol (E2) after single and multiple oral doses of TT dosage forms in hypogonadal males • c) To identify single fixed dose dosing regimen satisfying USFDA target, not needing to titrate for restoring average serum T levels in hypogonadal males to the normal T range.
# The dosing regimen for this clinic study ranged from 500 mg daily dose to 1250 mg daily dose with […]. Observed pharmacokinetic parameters (T, DHT, T13, DHTT, and E2) after single and multiple oral doses of T13 dosage forms in the patients were recorded by each daily dose in the report. […] The overall analyzed results of this clinic study were plotted according to % of patients for safety (Cmax <1,500 ng/dL) and efficacy (Cavg >300 ng/dL) with a variety of dosing regimen. Its results are shown in the below table.
# [2] = Single fixed dose dosing regimen examples for safety and efficacy (serum T Cmax / Cavg criteria), with food; type: in vivo, human
# [3] = 750 mg T13 QD dose at steady state (14 days)
# [4] = daily dose 500 mg T13 (equivalent T dose 298 mg)
# [5] = daily dose 700 mg T13 (equivalent T dose 417 mg)
# [6] = daily dose 750 mg T13 QD (equivalent T dose 446 mg)
# [7] = daily dose 800 mg T13 (equivalent T dose 476 mg)
# [8] = daily dose 900 mg T13 (equivalent T dose 536 mg)
# [9] = daily dose 1000 mg T13 QD (equivalent T dose 595 mg)
# [10] = daily dose 1100 mg T13 (equivalent T dose 655 mg)
# [11] = daily dose 1150 mg T13 (equivalent T dose 685 mg)
# [12] = daily dose 1250 mg T13 (equivalent T dose 744 mg)
# [13] = Regimen 1, QD 500 mg T13, with food with at least 10 g of fat
# [14] = Regimen 2, QD 700 mg T13, with food with at least 10 g of fat
# [15] = Regimen 3, QD 750 mg T13, with food with at least 10 g of fat
# [16] = Regimen 4, QD 800 mg T13, with food with at least 10 g of fat
# [17] = Regimen 5, QD 900 mg T13, with food with at least 10 g of fat
# [18] = Regimen 6, QD 1000 mg T13, with food with at least 10 g of fat
# [19] = Regimen 7, QD 1100 mg T13, with food with at least 10 g of fat
# [20] = Regimen 8, QD 1150 mg T13, with food with at least 10 g of fat
structure (smiles),measurement,setting,value
"CCCCCCCCCCCCC(=O)O[C@H]1CC[C@H]2[C@@H]3CCC4=CC(=O)CC[C@]4(C)[C@H]3CC[C@]12C [T13, testosterone tridecanoate]",T Cavg (±SD),[1]; [3],352 (±41) ng/dL
same,T Cmax (±SD),[1]; [3],822 (±254) ng/dL
same,T Cavg (±SD),[1]; 1000 mg QD dose at steady state (14 days),405 (±148) ng/dL
same,T Cmax (±SD),[1]; 1000 mg T13 QD dose at steady state (14 days),930 (±326) ng/dL
same,% with Cavg/day > 300 ng/dL,[1]; [4],36.3%
same,"% with Cmax/dose < 1,500 ng/dL",[1]; [4],100.0%
same,% with Cavg/day > 300 ng/dL,[1]; [5],71.5%
same,"% with Cmax/dose < 1,500 ng/dL",[1]; [5],100.0%
same,% with Cavg/day > 300 ng/dL,[1]; [6],76.2%
same,"% with Cmax/dose < 1,500 ng/dL",[1]; [6],99.5%
same,% with Cavg/day > 300 ng/dL,[1]; [7],80.0%
same,"% with Cmax/dose < 1,500 ng/dL",[1]; [7],98.8%
same,% with Cavg/day > 300 ng/dL,[1]; [8],85.0%
same,"% with Cmax/dose < 1,500 ng/dL",[1]; [8],96.7%
same,% with Cavg/day > 300 ng/dL,[1]; [9],88.1%
same,"% with Cmax/dose < 1,500 ng/dL",[1]; [9],92.8%
same,% with Cavg/day > 300 ng/dL,[1]; [10],90.0%
same,"% with Cmax/dose < 1,500 ng/dL",[1]; [10],85.6%
same,% with Cavg/day > 300 ng/dL,[1]; [11],90.7%
same,"% with Cmax/dose < 1,500 ng/dL",[1]; [11],80.0%
same,% with Cavg/day > 300 ng/dL,[1]; [12],91.6%
same,"% with Cmax/dose < 1,500 ng/dL",[1]; [12],66.8%
same,US FDA T level target for safety and efficacy for testosterone replacement therapy,"[1]; single fixed dose, no titration, 750 mg to 1100 mg daily dose of T13",satisfies US FDA T level target for safety and efficacy
same,Cavg > 300 ng/dL ≥75% patients,[2]; [13],No
same,Cavg > 300 ng/dL ≥80% patients,[2]; [13],No
same,Cmax > 1500 ng/dL <15% patients,[2]; [13],Yes
same,Cmax > 1500 ng/dL <20% patients,[2]; [13],Yes
same,Cmax > 1800 ng/dL <5% patients,[2]; [13],Yes
same,Cmax > 1800 ng/dL <10% patients,[2]; [13],Yes
same,Cmax > 2500 ng/dL <2% patients,[2]; [13],Yes
same,Cmax > 2500 ng/dL none of patients,[2]; [13],Yes
same,Cavg > 300 ng/dL ≥75% patients,[2]; [14],No
same,Cavg > 300 ng/dL ≥80% patients,[2]; [14],No
same,Cmax > 1500 ng/dL <15% patients,[2]; [14],Yes
same,Cmax > 1500 ng/dL <20% patients,[2]; [14],Yes
same,Cmax > 1800 ng/dL <5% patients,[2]; [14],Yes
same,Cmax > 1800 ng/dL <10% patients,[2]; [14],Yes
same,Cmax > 2500 ng/dL <2% patients,[2]; [14],Yes
same,Cmax > 2500 ng/dL none of patients,[2]; [14],Yes
same,Cavg > 300 ng/dL ≥75% patients,[2]; [15],Yes
same,Cavg > 300 ng/dL ≥80% patients,[2]; [15],No
same,Cmax > 1500 ng/dL <15% patients,[2]; [15],Yes
same,Cmax > 1500 ng/dL <20% patients,[2]; [15],Yes
same,Cavg > 300 ng/dL ≥75% patients,[2]; [16],Yes
same,Cavg > 300 ng/dL ≥80% patients,[2]; [16],Yes
same,Cavg > 300 ng/dL ≥75% patients,[2]; [17],Yes
same,Cavg > 300 ng/dL ≥80% patients,[2]; [17],Yes
same,Cmax > 1500 ng/dL <15% patients,[2]; [17],Yes
same,Cmax > 1500 ng/dL <20% patients,[2]; [17],Yes
same,Cmax > 1800 ng/dL <5% patients,[2]; [17],Yes
same,Cmax > 1800 ng/dL <10% patients,[2]; [17],Yes
same,Cmax > 2500 ng/dL <2% patients,[2]; [17],Yes
same,Cmax > 2500 ng/dL none of patients,[2]; [17],Yes
same,Cavg > 300 ng/dL ≥75% patients,[2]; [18],Yes
same,Cavg > 300 ng/dL ≥80% patients,[2]; [18],Yes
same,Cmax > 1500 ng/dL <15% patients,[2]; [18],Yes
same,Cmax > 1500 ng/dL <20% patients,[2]; [18],Yes
same,Cmax > 1800 ng/dL <5% patients,[2]; [18],Yes
same,Cmax > 1800 ng/dL <10% patients,[2]; [18],Yes
same,Cmax > 2500 ng/dL <2% patients,[2]; [18],Yes
same,Cmax > 2500 ng/dL none of patients,[2]; [18],Yes
same,Cavg > 300 ng/dL ≥75% patients,[2]; [19],Yes
same,Cavg > 300 ng/dL ≥80% patients,[2]; [19],Yes
same,Cmax > 1500 ng/dL <15% patients,[2]; [19],Yes
same,Cmax > 1500 ng/dL <20% patients,[2]; [19],Yes
same,Cmax > 1800 ng/dL <5% patients,[2]; [19],Yes
same,Cmax > 1800 ng/dL <10% patients,[2]; [19],Yes
same,Cmax > 2500 ng/dL <2% patients,[2]; [19],Yes
same,Cmax > 2500 ng/dL none of patients,[2]; [19],Yes
same,Cavg > 300 ng/dL ≥75% patients,[2]; [20],Yes
same,Cavg > 300 ng/dL ≥80% patients,[2]; [20],Yes
same,Cmax > 1500 ng/dL <15% patients,[2]; [20],No
same,Cmax > 1500 ng/dL <20% patients,[2]; [20],Yes
same,Cmax > 1800 ng/dL <5% patients,[2]; [20],Yes
same,Cmax > 1800 ng/dL <10% patients,[2]; [20],Yes
same,Cmax > 2500 ng/dL <2% patients,[2]; [20],Yes
same,Cmax > 2500 ng/dL none of patients,[2]; [20],No
same,Cavg > 300 ng/dL ≥75% patients,"[2]; Regimen 9, QD 1250 mg T13, with food with at least 10 g of fat",Yes
